Experimental data as given in ChEMBL document CHEMBL1201862, “PubChem BioAssay data set” (2004).
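Interpolation was linear, between the two tested concentrations surrounding the appropriate level; five concentrations were tested over 48 hours in 96-well plates. GI50 is the concentration that inhibits growth by half.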 Active and inactive are the calls of the source. No stated cut-off is given here; in the data, active = GI50 up to about 1.1 µM and inactive = higher.

How the values were obtained:
Test in all cases: NCI tumour cell line growth inhibition, 48 h
SN12C = test system: SN12C
IGROV-1 = test system: IGROV-1
SNB-75 = test system: SNB-75
K562 = test system: K562
ACHN = test system: ACHN
MDA-MB-435 = test system: MDA-MB-435
U-251 = test system: U-251
HCC 2998 = test system: HCC 2998
Malme-3M = test system: Malme-3M
DU-145 = test system: DU-145
SW-620 = test system: SW-620
CCRF-CEM = test system: CCRF-CEM
SNB-19 = test system: SNB-19
SK-MEL-2 = test system: SK-MEL-2
LOX IMVI = test system: LOX IMVI
MDA-MB-231 = test system: MDA-MB-231
SF-268 = test system: SF-268
NCI-H23 = test system: NCI-H23
HL-60 = test system: HL-60
UO-31 = test system: UO-31

Row | Compound | GI50 (SN12C) | GI50 (IGROV-1) | GI50 (SNB-75) | GI50 (K562) | GI50 (ACHN) | GI50 (MDA-MB-435) | GI50 (U-251) | GI50 (HCC 2998) | GI50 (Malme-3M) | GI50 (DU-145) | GI50 (SW-620) | GI50 (CCRF-CEM) | GI50 (SNB-19) | GI50 (SK-MEL-2) | GI50 (LOX IMVI) | GI50 (MDA-MB-231) | GI50 (SF-268) | GI50 (NCI-H23) | GI50 (HL-60) | GI50 (UO-31)
1 | CCN1CCc2sc3nc(S)n(C)c(=O)c3c2C1 | > 100 µM (inactive) | > 100 µM (inactive) | > 100 µM (inactive) | > 100 µM (inactive) | > 100 µM (inactive) | > 100 µM (inactive) | > 100 µM (inactive) | > 100 µM (inactive) | > 100 µM (inactive) | > 100 µM (inactive) | > 100 µM (inactive) | < 0.01 µM (active) | > 100 µM (inactive) | > 100 µM (inactive) | > 100 µM (inactive) | > 100 µM (inactive) | > 100 µM (inactive) | > 100 µM (inactive) | < 0.01 µM (active) | > 100 µM (inactive)
2 | NCCNC(=O)CN(CC(=O)O)C1CCCCC1N(CC(=O)O)CC(=O)O (stereo not given) | > 100 µM (inactive) | > 100 µM (inactive) | 2.32 µM (inactive) | > 100 µM (inactive) | > 100 µM (inactive) | > 100 µM (inactive) | > 100 µM (inactive) | > 100 µM (inactive) | > 100 µM (inactive) | > 100 µM (inactive) | > 100 µM (inactive) | > 100 µM (inactive) | > 100 µM (inactive) | > 100 µM (inactive) | > 100 µM (inactive) | > 100 µM (inactive) | 24.4 µM (inactive) | > 100 µM (inactive) | > 100 µM (inactive) | > 100 µM (inactive)
3 | CCOC(=O)C1=CCOc2cc(N(C)C)ccc21 | > 100 µM (inactive) | > 100 µM (inactive) | 43.4 µM (inactive) | 26.9 µM (inactive) | > 100 µM (inactive) | > 100 µM (inactive) | > 100 µM (inactive) | > 100 µM (inactive) | > 100 µM (inactive) | > 100 µM (inactive) | > 100 µM (inactive) | 21.6 µM (inactive) | > 100 µM (inactive) | 75 µM (inactive) | > 100 µM (inactive) | > 100 µM (inactive) | 97.5 µM (inactive) | > 100 µM (inactive) | 31.8 µM (inactive) | > 100 µM (inactive)
4 | COc1cc(NS(C)(=O)=O)ccc1NCc1c[nH]c2ccc3ncccc3c12 | 20.6 µM (inactive) | 37.1 µM (inactive) | 14.3 µM (inactive) | 9.12 µM (inactive) | 21 µM (inactive) | 19.3 µM (inactive) | 27.5 µM (inactive) | 18.9 µM (inactive) | 20.5 µM (inactive) | 23.9 µM (inactive) | 26.1 µM (inactive) | 1.83 µM (inactive) | 30.1 µM (inactive) | 19.5 µM (inactive) | 25.2 µM (inactive) | 19.7 µM (inactive) | 22.4 µM (inactive) | 20.4 µM (inactive) | 0.871 µM (active) | 26.4 µM (inactive)
5 | Clc1ccc(Cn2cc(/C=N/n3cnnc3)c3ccccc32)cc1 | 45.9 µM (inactive) | 24.1 µM (inactive) | 21.1 µM (inactive) | 22.5 µM (inactive) | 51.1 µM (inactive) | 83.9 µM (inactive) | 37.8 µM (inactive) | 14.4 µM (inactive) | 89.3 µM (inactive) | > 100 µM (inactive) | > 100 µM (inactive) | 73.6 µM (inactive) | 56 µM (inactive) | 26.7 µM (inactive) | 54.6 µM (inactive) | 20.4 µM (inactive) | 45.9 µM (inactive) | 29.3 µM (inactive) | 40.6 µM (inactive) | 30.5 µM (inactive)
6 | COc1cc2c(cc1[N+](=O)[O-])C(=O)C(Br)(Br)CCC2 | 2.21 µM (inactive) | 0.955 µM (active) | 13.1 µM (inactive) | 1.09 µM (active) | 2.11 µM (inactive) | 2.81 µM (inactive) | 2.23 µM (inactive) | 14 µM (inactive) | 2.13 µM (inactive) | 7.18 µM (inactive) | 1.88 µM (inactive) | 0.101 µM (active) | 7.01 µM (inactive) | 2.13 µM (inactive) | 0.4 µM (active) | 3.05 µM (inactive) | 4.14 µM (inactive) | 2.79 µM (inactive) | 3.22 µM (inactive) | 1.61 µM (inactive)
